Experiment [1] relates to pERK in NCI-H1435 cells (NF-1 mutant). As to the kind of experiment: pERK inhibition in NF-1 mutant NCI-H1435 cells (Example F). The class given is cell-based. The settings on record: NCI-H1435, 1 h, read-out: IC50, pERK inhibition.
Description: The formaldehyde was discarded from the plates and 150 μL of ice-cold methanol was added to permeabilize the cells for 10 minutes at −20° C. The methanol was discarded from each of the plates and any liquid remaining in the plate by tapping the plate against paper towels. […] The plates were incubated overnight at 4° C. on a shaker.
On Assay day 2, the primary antibody solution was removed. […] The secondary antibody solution as removed and each plate was washed with PBST 3× times. Any liquid remaining was discarded and the plate was imaged using the Licor Odyssey machine according to the manufacturer's instruction, using a set focus length at 3 mm and both 800 nm and 700 nm filters. The GAPDH normalized scan values for each well were divided by the average of vehicle wells to get the % of pERK inhibition. The IC50 values were then calculated with the Graph pad Prism software.
Experiment [2] has as its system pERK in MKN1 cells. The experiment in a line: cells. Format: cell-based. The settings on record: Homo sapiens.
The target in experiment [3] is recombinant human SOS1 polypeptide (amino acids 560-1049) (Homo sapiens (Human), UniProt Q07889). The experiment in a line: biochemical. The class given is binding.
Chain of recombinant human SOS1 polypeptide (amino acids 560-1049) (Q07889 560-1049): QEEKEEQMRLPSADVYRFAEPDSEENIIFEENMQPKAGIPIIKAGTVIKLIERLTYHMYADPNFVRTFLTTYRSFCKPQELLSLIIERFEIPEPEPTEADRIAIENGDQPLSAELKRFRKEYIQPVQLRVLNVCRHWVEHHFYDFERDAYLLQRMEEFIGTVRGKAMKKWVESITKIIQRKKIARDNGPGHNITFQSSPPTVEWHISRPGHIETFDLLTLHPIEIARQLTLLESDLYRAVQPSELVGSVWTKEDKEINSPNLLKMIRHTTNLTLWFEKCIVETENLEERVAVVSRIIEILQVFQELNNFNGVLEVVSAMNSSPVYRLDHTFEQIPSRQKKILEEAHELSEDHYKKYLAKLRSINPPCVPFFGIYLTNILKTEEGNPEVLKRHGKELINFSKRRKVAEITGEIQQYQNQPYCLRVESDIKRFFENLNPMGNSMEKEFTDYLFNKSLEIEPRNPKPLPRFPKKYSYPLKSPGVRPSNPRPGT
[4] abbreviates: MKN-1, pERK inhibition, In-Cell Western, MKN1 or H358 cells (Table 24 does not say which), 0.5-1 hour incubation, read-out: IC50.
Where [5] appears, read: HTRF displacement, Cy5 labelled tracer, Morrison equation for competitive binding, read-out: Ki, Inhibition of Labeled Tracer Binding to SOS1.

The structures appear in SMILES notation. Where a name gives a salt, the structure may show the parent alone. Read-outs that look alike come from different tables or passages of the source.

For the compound `Cc1c([C@@H](C)Nc2nnc(C)c3cnc(N4CCOCC4)cc23)cccc1C(F)(F)F` [Example 6-12, (R)-4-methyl-N-(1-(2-methyl-3-(trifluoromethyl)phenyl)ethyl)-7-morpholinopyrido[3,4-d]pyridazin-1-amine], in experiment [1], the IC50 is 63 nM.
As to `Cc1nc(C)n2c1CN(c1ccc3c(C)nnc(N[C@H](C)c4cccc(C(F)(F)F)c4C)c3c1)CC2` [Example 10-11, (R)-7-(1,3-dimethyl-5,6-dihydroimidazo[1,5-a]pyrazin-7(8H)-yl)-4-methyl-N-(1-(2-methyl-3-(trifluoromethyl)phenyl)ethyl)phthalazin-1-amine], the IC50 in experiment [2] (setting [4]) turned out to be 22 nM; in experiment [1], 63 nM. Also, the Ki in experiment [3] (setting [5]) worked out at 0.01 nM.
With `Cc1c([C@@H](C)Nc2nnc(C)c3ccc(N4CCC(N(C)C)CC4)cc23)cccc1C(F)(F)F` [Example 10-8, (R)-7-(4-(dimethylamino)piperidin-1-yl)-4-methyl-N-(1-(2-methyl-3-(trifluoromethyl)phenyl)ethyl)phthalazin-1-amine], the IC50 in experiment [2] (setting [4]) was 34 nM; in experiment [1] it was 94 nM. The Ki in experiment [3] (setting [5]) is 0.09 nM.
For the compound `Cc1c([C@@H](C)Nc2nnc(C)c3cnc(N4CCNCC4)cc23)cccc1C(F)(F)F` [Example 6-9, (R)-4-methyl-N-(1-(2-methyl-3-(trifluoromethyl)phenyl)ethyl)-7-(piperazin-1-yl)pyrido[3,4-d]pyridazin-1-amine], the IC50 in experiment [1] came out at 52 nM.
For the compound `Cc1c([C@@H](C)Nc2nnc(C)c3ccc(N4CCN(C(=O)C5COC5)CC4)cc23)cccc1C(F)(F)F` [Example 11-1, (R)-(4-(1-methyl-4-((1-(2-methyl-3-(trifluoromethyl)phenyl)ethyl)amino)phthalazin-6-yl)piperazin-1-yl)(oxetan-3-yl)methanone], the IC50 was 10 nM in experiment [2] (setting [4]) and 6 nM in experiment [1]. The Ki in experiment [3] (setting [5]) was 0.01 nM.
On the same counts, the results for `Cc1nnc(N[C@H](C)c2cc(N)cc(C(F)(F)F)c2)c2cc(N3CCOCC3)ccc12` [Example 6-5, (R)-N-(1-(3-amino-5-(trifluoromethyl)phenyl)ethyl)-4-methyl-7-morpholinophthalazin-1-amine] are 10 nM, 9 nM and 0.12 nM.
As to `Cc1c([C@@H](C)Nc2nnc(C)c3ccc(N4CCN(C(=O)C5CCOCC5)CC4)cc23)cccc1C(F)(F)F` [Example 11-2, (R)-(4-(1-methyl-4-((1-(2-methyl-3-(trifluoromethyl)phenyl)ethyl)amino)phthalazin-6-yl)piperazin-1-yl)(tetrahydro-2H-pyran-4-yl)methanone], the IC50 in experiment [2] (setting [4]) is 27 nM; in experiment [1], 17 nM. Besides, the Ki in experiment [3] (setting [5]) was less than 0.01 nM.
`Cc1c([C@@H](C)Nc2nnc(C)c3ccc(N4CCOC[C@@H]4C)cc23)cccc1C(F)(F)F` [Example 10-6, 4-methyl-N-((R)-1-(2-methyl-3-(trifluoromethyl)phenyl)ethyl)-7-((S)-3-methylmorpholino)phthalazin-1-amine]: the IC50 in experiment [2] (setting [4]) worked out at 21 nM; in experiment [1] it was 75 nM. In addition, the Ki in experiment [3] (setting [5]) turned out to be 0.64 nM.
On the same counts, the results for `CNCc1c(F)cccc1-c1ccc([C@@H](C)Nc2nnc(C)c3ccc(N4CCOCC4)cc23)s1` [Example 6-6, (R)-N-(1-(5-(3-fluoro-2-((methylamino)methyl)phenyl)thiophen-2-yl)ethyl)-4-methyl-7-morpholinophthalazin-1-amine] are 40 nM, 29 nM and 0.11 nM.
The like results for `CNCc1ccccc1-c1ccc([C@@H](C)Nc2nnc(C)c3ccc(N4CCOCC4)cc23)s1` [Example 6-3, (R)-4-methyl-N-(1-(5-(2-((methylamino)methyl)phenyl)thiophen-2-yl)ethyl)-7-morpholinophthalazin-1-amine] were, in that order, 12 nM, 25 nM and 0.02 nM.
On the same counts, the results for `Cc1c([C@@H](C)Nc2nnc(C)c3ccc(OC4CNC4)cc23)cccc1C(F)(F)F` [Example 7-4, (R)-7-(azetidin-3-yloxy)-4-methyl-N-(1-(2-methyl-3-(trifluoromethyl)phenyl)ethyl)phthalazin-1-amine] are 14 nM, 83 nM and 0.47 nM.
`Cc1c([C@@H](C)Nc2nnc(C)c3ccc(N4CCN(c5cnn(C)c5)CC4)cc23)cccc1C(F)(F)F` [Example 10-10, (R)-4-methyl-7-(4-(1-methyl-1H-pyrazol-4-yl)piperazin-1-yl)-N-(1-(2-methyl-3-(trifluoromethyl)phenyl)ethyl)phthalazin-1-amine]: the IC50 stood at 17 nM in experiment [2] (setting [4]) and 15 nM in experiment [1]. In experiment [3] (setting [5]), the inhibitory constant (Ki) worked out at 0.01 nM.
Regarding `Cc1c([C@@H](C)Nc2nnc(C)c3ccc(O[C@H]4CCNC4)cc23)cccc1C(F)(F)F` [Example 7-3, 4-methyl-N-((R)-1-(2-methyl-3-(trifluoromethyl)phenyl)ethyl)-7-(((S)-pyrrolidin-3-yl)oxy)phthalazin-1-amine], the IC50 in experiment [2] (setting [4]) is 28 nM; in experiment [1], 55 nM. For the same compound, in experiment [3] (setting [5]), the Ki came out at 0.32 nM.
For the compound `CNC1CCN(c2ccc3c(C)nnc(N[C@H](C)c4cccc(C(F)(F)F)c4C)c3c2)CC1` [Example 10-7, (R)-4-methyl-N-(1-(2-methyl-3-(trifluoromethyl)phenyl)ethyl)-7-(4-(methylamino)piperidin-1-yl)phthalazin-1-amine], the IC50 came to 22 nM in experiment [2] (setting [4]) and 87 nM in experiment [1]. Further, the Ki in experiment [3] (setting [5]) was determined as 0.07 nM.
`Cc1c([C@@H](C)Nc2nnc(C)c3ccc(OC[C@H]4CCCN4)cc23)cccc1C(F)(F)F` [Example 7-7, 4-methyl-N-((R)-1-(2-methyl-3-(trifluoromethyl)phenyl)ethyl)-7-(((R)-pyrrolidin-2-yl)methoxy)phthalazin-1-amine hydrochloride salt] displayed an IC50 in experiment [2] (MKN-1) of 115 nM. The Ki in experiment [3] (read-out: Ki, Inhibition of Labeled Tracer Binding to SOS1) was determined as 0.92 nM.
As for `Cc1c(C#N)cccc1[C@@H](C)Nc1nnc(C)c2cnc(N3C[C@H]4CC[C@@H]3CN4CC(F)(F)F)cc12` [Example 12-76], the 50% inhibitory concentration (IC50) in experiment [2] (setting [4]) is 56 nM. The Ki in experiment [3] (setting [5]) amounted to 1.06 nM.
On the same counts, the results for `Cc1c(C#N)cccc1[C@@H](C)Nc1nnc(C)c2cc(C(F)(F)F)c(N3CC(C)(O)C3)cc12` [Example 19-3, (R)-3-(1-((7-(3-hydroxy-3-methylazetidin-1-yl)-4-methyl-6-(trifluoromethyl)phthalazin-1-yl)amino)ethyl)-2-methylbenzonitrile] are 114 nM and 19.3 nM.
The like results for `COc1c(C#N)cccc1[C@@H](C)Nc1nnc(C)c2ccc(N3CC(C)(O)C3)cc12` [Example 17-4, (R)-3-(1-((7-(3-hydroxy-3-methlazetidin-1-yl)-4-methylpyridazin-1-yl)amino)ethyl)-2-methoxybenzonitrile] were, in that order, 116 nM and 14.4 nM.
Turning to `Cc1nnc(N[C@H](C)c2ccc(F)cc2F)c2cc(N3CCN4CCOC[C@@H]4C3)ncc12` [Example 12-48], in experiment [2] (setting [4]), the half-maximal inhibitory concentration (IC50) came out at 114 nM. In addition, the Ki in experiment [3] (setting [5]) is 17 nM.
`Cc1c(C(F)F)cccc1[C@@H](C)Nc1nnc(C)c2cnc(N3CCN4CCOC[C@@H]4C3)cc12` [Example 12-42]: the concentration for half-maximal inhibition (IC50) in experiment [2] (setting [4]) came to 27 nM. Further, in experiment [3] (setting [5]), the inhibition constant Ki came out at 0.79 nM.
`Cc1c([C@@H](C)Nc2nncc3ccc(OC4CCN5CCCC5C4)cc23)cccc1C(F)(F)F` (stereo partly drawn) [Example 2-12, N-((R)-1-(2-methyl-3-(trifluoromethyl)phenyl)ethyl)-7-((octahydroindolizin-7-yl)oxy)phthalazin-1-amine]: the IC50 in experiment [2] (setting [4]) is 304 nM. Moreover, in experiment [3] (setting [5]), the Ki is 5.75 nM.
Take `Cc1cc(F)ccc1[C@@H](C)Nc1nnc(C)c2cnc(N3CC(C)(N(C)C)C3)cc12` [Example 12-124]: the IC50 in experiment [2] (setting [4]) came out at 856 nM. The Ki in experiment [3] (setting [5]) was found to be 64.5 nM.
The like results for `Cc1nnc(N[C@H](C)c2cccc(F)c2Cl)c2cc(N3CC(C)(O)C3)ncc12` [Example 12-80] were, in that order, 295 nM and 37.4 nM.
As for `Cc1nnc(N[C@H](C)c2cc(O)cc(C(F)(F)F)c2)c2cc(N3CCOCC3)ccc12` [Example 21-2, (R)-3-(1-((4-methyl-7-morpholinophthalazin-1-yl)amino)ethyl)-5-(trifluoromethyl)phenol], half-maximal inhibition in experiment [2] (MKN-1, pERK inhibition, In-Cell Western, MKN1 or H358 cells (Table 24 does not say which), 0.5-1 hour incubation) (IC50) required 137 nM. The Ki in experiment [3] was 1.67 nM.
As to `Cc1nnc(N[C@H](C)c2cc(N)cc(C(F)(F)F)n2)c2cc(N3C[C@H]4CC[C@@H]3CN4C)ncc12` [Example 16-6, N-((R)-1-(4-amino-6-(trifluoromethyl)pyridin-2-yl)ethyl)-4-methyl-7-((1R, 4R)-5-methyl-2,5-diazabicyclo[2.2.2]octan-2-yl)pyrido[3,4-d]pyridazin-1-amine], the IC50 in experiment [2] (setting [4]) came out at 239 nM. Moreover, the inhibition constant Ki in experiment [3] (setting [5]) turned out to be 6.5 nM.
The like results for `CCN1CCN(c2cc3c(N[C@H](C)c4cccc(C#N)c4C)nnc(C)c3cn2)CC1` [Example 12-52] were, in that order, 60 nM and 1.06 nM.
The like results for `Cc1nnc(N[C@H](C)c2cc(N)cc(C(F)(F)F)n2)c2cc(N3CC(C)(N(C)C)C3)ccc12` [Example 16-9, (R)-N-(1-(4-amino-6-(trifluoromethyl)pyridin-2-yl)ethyl)-7-(3-(dimethylamino)-3-methylazetidin-1-yl)-4-methylphthalazin-1-amine] were, in that order, 643 nM and 35.6 nM.
The like results for `Cc1c([C@@H](C)Nc2nnc(C)c3ccc(N4CCN(C(=O)[C@H]5CCOC5)CC4)cc23)cccc1C(F)(F)F` [Example 11-5, (4-(1-methyl-4-(((R)-1-(2-methyl-3-(trifluoromethyl)phenyl)ethyl)amino)phthalazin-6-yl)piperazin-1-yl)((S)-tetrahydrofuran-3-yl)methanone] were, in that order, 12 nM and 0.01 nM.

Values taken from US11702418B2, “SOS1 inhibitors” (priority 2019, dated 2023).
